Columns and labels:
[1] = Solubility of DMFD in methanol (jacketed solubility cell, samples analyzed by gas chromatography); assay type: physicochemical
Description: (§1) The solubility of DMFD in water and methanol was tested according to the following procedure: A jacketed 120 ml solubility cells equipped with a condenser, a digital thermometer, a nitrogen blanket and connected to a circulating bath capable of heating/cooling was charged with […] and water or methanol. The heterogeneous mixture was heated to the desired temperature and sample was taken using preheated fritted glass pipette. The samples were analyzed using gas chromatography.

[2] = Solubility of DMFD in water (jacketed solubility cell, samples analyzed by gas chromatography); assay type: physicochemical
Description: as §1

Structure (SMILES): COC(=O)c1ccc(C(=O)OC)o1 [DMFD, dimethyl furan-2,5-dicarboxylate]
- DMFD Solubility (wt %) in Methanol ([1]; T 1.0 ° C.): 0.6 wt %
- DMFD Solubility (wt %) in Methanol ([1]; T 14.1 ° C.): 1.4 wt %
- DMFD Solubility (wt %) in Methanol ([1]; T 26.3 ° C.): 2.8 wt %
- DMFD Solubility (wt %) in Methanol ([1]; T 35.3 ° C.): 4.5 wt %
- DMFD Solubility (wt %) in Methanol ([1]; T 46.6 ° C.): 8.7 wt %
- DMFD Solubility (wt %) in Methanol ([1]; T 56.1 ° C.): 15.4 wt %
- DMFD Solubility (wt %) in Methanol ([1]; T 61.3 ° C.): 20.8 wt %
- solubility of DMFD in water compared to methanol (in words) ([2]; temperature points from about 1° C. to about 61° C.): very low solubility in water compared to methanol
- DMFD Solubility (wt %) in Water ([2]; T 1.4 ° C.): BDL
- DMFD Solubility (wt %) in Water ([2]; T 13.1 ° C.): BDL
- DMFD Solubility (wt %) in Water ([2]; T 26.6 ° C.): BDL
- DMFD Solubility (wt %) in Water ([2]; T 35.6 ° C.): BDL
- DMFD Solubility (wt %) in Water ([2]; T 47.0 ° C.): 0.1 wt %
- DMFD Solubility (wt %) in Water ([2]; T 56.6 ° C.): 0.2 wt %
- DMFD Solubility (wt %) in Water ([2]; T 63.9 ° C.): 0.3 wt %
- DMFD Solubility (wt %) in Water ([2]; T 74.6 ° C.): 0.4 wt %
- DMFD Solubility (wt %) in Water ([2]; T 89.5 ° C.): 0.9 wt %
- DMFD Solubility (wt %) in Water ([2]; T 97.5 ° C.): 1.3 wt %

Source: patent US9169229B2, “Method for producing purified dialkyl-furan-2,5-dicarboxylate by physical separation and solid liquid separation” (Eastman Chemical Company, priority 2012, dated 2015)
